biological target: human IDO1 (Homo sapiens, UniProt P14902); experiment: Assessment of human IDO-1 inhibitory activity in HEK cells (human IDO1/HEK293 cells, kynurenine read-out with Ehrlich reagent, absorbance 490 nm); assay type: cell-based; parameters: expressed in transfected cells; conditions: HEK Human IDO-1 cellular assay
How it was run: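 HEK293 cells stably expressing human IDO1 were seeded at 10,000 per well in phenol red-free RPMI with 10% FBS, treated with compound for 20 h at 37 °C. Kynurenine was measured after TCA (0.2% final) and 30 min at 50 °C, using Ehrlich reagent, A490. IC50 normalised to DMSO (0%) and 500 nM reference standard (100%).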

Sequence of human IDO1 (P14902 whole entry): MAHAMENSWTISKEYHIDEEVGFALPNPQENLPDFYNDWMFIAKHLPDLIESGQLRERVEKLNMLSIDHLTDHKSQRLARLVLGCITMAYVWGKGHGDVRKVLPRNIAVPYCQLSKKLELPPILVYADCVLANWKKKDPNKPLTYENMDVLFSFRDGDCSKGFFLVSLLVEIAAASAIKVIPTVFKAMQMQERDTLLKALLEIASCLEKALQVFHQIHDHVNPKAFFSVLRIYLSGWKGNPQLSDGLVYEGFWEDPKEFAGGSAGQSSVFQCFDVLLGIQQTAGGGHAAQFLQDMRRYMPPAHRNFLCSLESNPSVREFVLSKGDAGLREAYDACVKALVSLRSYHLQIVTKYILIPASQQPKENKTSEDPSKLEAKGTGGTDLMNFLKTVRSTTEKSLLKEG

First: CC[C@H](CC(=O)O)c1ccc(N(CC)C2CCOCC2)c(Nc2ccn3nc(C)c(F)c3c2)c1 (single isomer, unassigned) [Example 513]
Second: CC[C@@H](CC(=O)O)c1ccc(N(CC)C2CCOCC2)c(Nc2ccn3nccc3n2)c1 (single isomer, unassigned) [Example 468]
The IC50 of the first is lower: < 50 nM for the first, > 50 nM for the second. The first is the more potent here.

`CCN(c1ccc(C(C)CC(=O)O)cc1Nc1ccc(Cl)cc1)C1CCOCC1` (single isomer, unassigned) [Example 612 E1, 3-(3-((4-Chlorophenyl)amino)-4-(ethyl(tetrahydro-2H-pyran-4-yl)amino)phenyl)butanoic acid] and `CC[C@H](CC(=O)O)c1ccc(N(CC)C2CCOCC2)c(Nc2ccc(Cl)cc2)c1` (single isomer, unassigned) [Example 499] cannot be ordered by IC50: < 5 nM for the first, < 5 nM for the second.

`CCN(c1ccc(C(CC(=O)O)c2ccccc2)cc1Nc1ccc(Cl)cc1)C1CCOCC1` (single isomer, unassigned) [Example 580, 3-(3-((4-chlorophenyl)amino)-4-(ethyl(tetrahydro-2H-pyran-4-yl)amino)phenyl)-3-phenylpropanoic acid] and `CC[C@@H](CC(=O)O)c1ccc(N(CC)C2CCOCC2)c(Nc2ccc(OCC3CC3)cc2)c1` (single isomer, unassigned) [Example 476] cannot be ordered by IC50: < 5 nM for the first, < 5 nM for the second.

`CCC(CC(=O)O)c1ccc(N2CCC[C@@H]2C(C)(C)O)c(Nc2ccc(C#N)cc2)c1` (single isomer, unassigned) [Example 782] and `CCC(CC(=O)O)c1ccc(N2CCC[C@@H]2C(C)(C)O)c(Nc2ccc(Cl)cc2)c1` (single isomer, unassigned) [Example 783] cannot be ordered by IC50: < 50 nM for the first, < 5 nM for the second.

Going from `CC(CC(=O)O)c1ccc(N(CC(C)(C)O)C2CCOCC2)c(Nc2ccc(C#N)cc2)c1` (single isomer, unassigned) [Example 194, 3-(3-((4-cyanophenyl)amino)-4-((2-hydroxy-2-methylpropyl)(tetrahydro-2H-pyran-4-yl)amino)phenyl)butanoic acid] to `CCOc1ncc(Nc2cc(C(C)CC(=O)O)ccc2N(CC(C)(C)O)C2CCOCC2)cn1` (single isomer, unassigned) [Example 191, 3-(3-((2-Ethoxypyrimidin-5-yl)amino)-4-((2-hydroxy-2-methylpropyl)(tetrahydro-2H-pyran-4-yl)amino)phenyl)butanoic acid], the IC50 rises from < 50 nM to > 50 nM.

`COCC(CC(=O)O)c1cc(F)c(N(CC(C)C)C2CCCCC2)c(NC(=O)Nc2ccc(Cl)cc2)c1` (single isomer, unassigned) [Example 1162, 3-(3-(3-(4-chlorophenyl)ureido)-4-(cyclohexyl(isobutyl)amino)-5-fluorophenyl)-4-methoxybutanoic acid] and `CCOc1ccc(NC(=O)Nc2cc(C(COC)CC(=O)O)cc(F)c2N(CC(C)C)C2CCCCC2)cc1` (single isomer, unassigned) [Example 1160, 3-(4-(cyclohexyl(isobutyl)amino)-3-(3-(4-ethoxyphenyl)ureido)-5-fluorophenyl)-4-methoxybutanoic acid] cannot be ordered by IC50: < 5 nM for the first, < 5 nM for the second.

`CCC(CC(=O)O)c1ccc(N(CC(C)C)C2CCCCC2)c(Nc2ccc3nc(C)sc3c2)c1` (single isomer, unassigned) [Example 305, 3-(4-(cyclohexyl(isobutyl)amino)-3-((2-methylbenzo [d]thiazol-6-yl)amino)phenyl)pentanoic acid] and `CC[C@H](CC(=O)O)c1ccc(N(CC(C)C)C2CCS(=O)(=O)CC2)c(Nc2ccc3sc(C)nc3c2)c1` [Example 214, 3-(4-((1,1-Dioxidotetrahydro-2H-thiopyran-4-yl)(isobutyl)amino)-3-((2-methylbenzo[d]thiazol-5-yl)amino)phenyl)pentanoic acid] cannot be ordered by IC50: < 5 nM for the first, < 50 nM for the second.

`CCCN(c1ccc([C@@H](CC)CC(=O)O)cc1Nc1ccc2c(c1)OC(F)(F)O2)C1CCOCC1` (single isomer, unassigned) [Example 539] and `CC[C@H](CC(=O)O)c1ccc(N(CC)C2CCOCC2)c(Nc2ccc(OC)nc2)c1` (single isomer, unassigned) [Example 518] cannot be ordered by IC50: < 5 nM for the first, < 5 nM for the second.

`CC(C)CN(c1ccc(C(CC(=O)O)C2CC2)cc1NC(=O)Nc1cncnc1)C1CCOCC1` (racemic) [Example 1206, (+/−)-3-Cyclopropyl-3-(4-(isobutyl(tetrahydro-2H-pyran-4-yl)amino)-3-(3-(pyrimidin-5-yl)ureido)phenyl)propanoic acid] and `COCC(CC(=O)O)c1ccc(N(CC(C)C)C2CCOCC2)c(NC(=O)Nc2ccc(OC(F)(F)F)cc2)c1` (single isomer, unassigned) [Example 1211, 3-(4-(Isobutyl(tetrahydro-2H-pyran-4-yl)amino)-3-(3-(4-(trifluoromethoxy)phenyl)ureido)phenyl)-4-methoxybutanoic acid] cannot be ordered by IC50: > 50 nM for the first, > 50 nM for the second.

`CCC(CC(=O)O)c1cc(F)c(N(CC(C)C)CC(C)C)c(Nc2ccc(Cl)c(OCC(F)(F)F)c2)c1` (single isomer, unassigned) [Example 118, 3-(3-((4-chloro-3-(2,2,2-trifluoroethoxy)phenyl)-amino)-4-(diisobutylamino)-5-fluorophenyl)pentanoic acid] and `CCC(CC(=O)O)c1cc(F)c(N(CC(C)C)CC(C)C)c(NC(=O)Cc2ccc(F)cc2F)c1` (single isomer, unassigned) [Example 1093 E2] cannot be ordered by IC50: < 50 nM for the first, < 5 nM for the second.

`CCC(CC(=O)O)c1ccc(N2CCOC[C@H]2C(C)C)c(Nc2ccc3nc(C)sc3c2)c1` (single isomer, unassigned) [Example 892] and `CC[C@@H](CC(=O)O)c1ccc(N2CCOC[C@@H]2C(C)C)c(Nc2ccc(Cl)cc2)c1` (single isomer, unassigned) [Example 78] cannot be ordered by IC50: < 50 nM for the first, < 50 nM for the second.

First: CCC(CC(=O)O)c1cc(NC(=O)Nc2ccc(C)cc2)c(N(CC(C)C)C2CCCCC2)cc1F (racemic) [Example 951, (+/−)-3-(4-(Cyclohexyl(isobutyl)amino)-2-fluoro-5-(3-(p-tolyl)ureido)phenyl)pentanoic acid]
Second: CC[C@@H](CC(=O)O)c1ccc(N(CC(C)C)C2CCS(=O)(=O)CC2)c(NC(=O)Nc2ccc(C)cc2)c1 (single isomer, unassigned) [Example 210]
The IC50 of the first is lower: < 5 nM for the first, > 50 nM for the second. The first is the more potent here.

`CC[C@@H](CC(=O)O)c1ccc(N2C[C@@H](C)O[C@@H](C)C2)c(NC(=O)Nc2ccc(C)cc2)c1` (single isomer, unassigned) [Example 754] and `CCC(CC(=O)O)c1ccc(N2C[C@@H](C)O[C@@H](C)C2)c(Nc2ccc3c(c2)OC(F)(F)O3)c1` (single isomer, unassigned) [Example 758] cannot be ordered by IC50: > 50 nM for the first, > 50 nM for the second.

`CC[C@H](CC(=O)O)c1ccc(N(CC)C2CCCCC2)c(Nc2ccc(OC(F)F)cc2)c1` (single isomer, unassigned) [Example 290] and `CCC(CC(=O)O)c1ccc(N(CC(C)C)C2CCCCC2)c(Nc2cnc(OC(C)C)nc2)c1` (single isomer, unassigned) [Example 648, 3-(4-(cyclohexyl(isobutyl)amino)-3-((2-isopropoxypyrimidin-5-yl)amino)phenyl)pentanoic acid] cannot be ordered by IC50: < 5 nM for the first, < 5 nM for the second.

`CC(C)(CC(=O)O)c1ccc(N2CCC[C@H]2C(C)(C)O)c(Nc2ccc(C#N)cc2)c1` [Example 809, (S)-3-(3-((4-cyanophenyl)amino)-4-(2-(2-hydroxypropan-2-yl)pyrrolidin-1-yl)phenyl)-3-methylbutanoic acid] and `C[C@@H]1CN(c2ccc(C(C)(C)CC(=O)O)cc2Nc2ccc(C#N)cc2)C[C@H](C)O1` [Example 731, 3-(3-((4-Cyanophenyl)amino)-4-((2S,6R)-2,6-dimethylmorpholino)phenyl)-3-methylbutanoic acid] cannot be ordered by IC50: < 50 nM for the first, < 50 nM for the second.

`CC(C)CN(c1ccc(C(C)CC(=O)O)cc1Nc1nc2ccccc2o1)C1CCOCC1` (single isomer, unassigned) [Example 968, 3-(3-(Benzo[d]oxazol-2-ylamino)-4-(isobutyl(tetrahydro-2H-pyran-4-yl)amino)phenyl)butanoic acid] and `COCC(CC(=O)O)c1ccc(N(CC(C)C)C2CCOCC2)c(NC(=O)Nc2ccc(OC)cc2F)c1` (single isomer, unassigned) [Example 1221, 3-(3-(3-(2-Fluoro-4-methoxyphenyl)ureido)-4-(isobutyl(tetrahydro-2H-pyran-4-yl)amino)phenyl)-4-methoxybutanoic] cannot be ordered by IC50: < 50 nM for the first, < 50 nM for the second.

`CCCN(c1ccc([C@@H](CC)CC(=O)O)cc1Nc1cnc(OC)nc1)C1CCOCC1` (single isomer, unassigned) [Example 540] and `CCOc1ncc(Nc2cc([C@H](CC)CC(=O)O)ccc2N2CCOC[C@@H]2C(C)C)cn1` (single isomer, unassigned) [Example 94] cannot be ordered by IC50: < 5 nM for the first, < 50 nM for the second.

`COc1ncc(Nc2cc(C(C)(C)CC(=O)O)ccc2N2C[C@@H](C)O[C@@H](C)C2)cn1` [Example 735, 3-(4-((2S,6R)-2,6-dimethylmorpholino)-3-((2-methoxypyrimidin-5-yl)amino)phenyl)-3-methylbutanoic acid] and `CCC(CC(=O)O)c1ccc(N2CCC[C@H]2C(C)(C)O)c(Nc2ccc(OCC3CC3)cc2)c1` (single isomer, unassigned) [Example 818] cannot be ordered by IC50: > 50 nM for the first, > 50 nM for the second.

`CCC(CC(=O)O)c1ccc(N2CCOC[C@H]2C(C)C)c(Nc2ccc(F)cc2)c1` (single isomer, unassigned) [Example 901] and `CC[C@H](CC(=O)O)c1ccc(N2CCC[C@@H]2C(C)(C)O)c(Nc2ccc(Cl)cc2)c1` (single isomer, unassigned) [Example 780] cannot be ordered by IC50: < 5 nM for the first, < 5 nM for the second.

`CCC(CC(=O)O)c1ccc(N2CC[C@H](O)C2)c(Nc2ccc(Cl)cc2)c1` (single isomer, unassigned) [Example 266] and `CC(C)CN(CC(C)C)c1ccc(C(CC(=O)O)CN(C)C)cc1NC(=O)Nc1cncnc1` (racemic) [Example 1001, (+/−)-3-(4-(Disobutylamino)-3-(3-(pyrimidin-5-yl)ureido)phenyl)-4-(dimethylamino)butanoic acid] cannot be ordered by IC50: > 50 nM for the first, > 50 nM for the second.

Source: patent US9790169B2, “IDO inhibitors” (BRISTOL-MYERS SQUIBB COMPANY, priority 2015, dated 2017)
